Test results: article PMC11984407, “A natural small molecule isoginkgetin alleviates hypercholesterolemia and atherosclerosis by targeting ACLY” (Theranostics, 2025)

What was measured:
[1] = system: primary hepatocytes from C57BL/6J mouse; assay: CCK8 cell viability, primary hepatocytes; assay type: cell-based; conditions: concentrations below 7.5 μmol/L, 12 h
Method: (§1) The cellular viability was assessed by conducting CCK8 assays in primary hepatocytes from C57BL/6J mouse and HepG2 cell line. Specifically, 2,000 cells per well were plated in 96-well plates and cultured with different concentrations of ISOGK for 12 h. Following this, cell absorption was quantified using a CCK8 kit (CA1210, Solarbio, Beijing, China), adhering strictly to the manufacturer's guidelines. The presented data represents the findings from three independent experiments, with each experiment consisting of four replicates.

[2] = system: HepG2 cell line; assay: CCK8 cell viability, HepG2; assay type: cell-based; conditions: concentrations below 7.5 μmol/L, 12 h
Method: as §1

[3] = system: primary mouse hepatocytes; assay: De novo lipogenesis in vitro, [1,2-14C]-acetate incorporation; assay type: cell-based; conditions: 2.5 μmol/L and 5 μmol/L, 4 h
Method: Hepatocytes were seeded in 6-well plates at a density of 6 x 10^5 cells per well. They were exposed to various compounds along with [1,2-^14C]-acetate (0.1 μCi per well) for specified durations. Following treatment, the cells underwent washing with cold PBS and were lysed in 0.4 to 0.6 mL of 0.5 M KOH. The saponification process at 95 °C for 3 h with 0.4 mL of KOH (in 20% methanol solution) enabled the separation of cholesterol and fatty acids. Cholesterol, being nonpolar, was extracted using 0.5 mL of petroleum ether in three separate instances. In comparison, polar fatty acids were extracted with 0.5 mL of petroleum ether after adding 0.2 mL of H2O and 0.4 mL of 5 M H2SO4 in three rounds. The petroleum ether extracts were left to air dry at room temperature overnight. The radioactivity of the resultant products was quantified using a liquid scintillation counter.

[4] = system: HepG2 cells; assay: DiI-LDL uptake assay; assay type: cell-based; conditions: HepG2, irrespective of dose or time
Method: HepG2 cells were cultured in 24-well plates and incubated in DMEM supplemented with 2% LPDS and 20 µg/mL DiI-LDL (20614ES76, YEASEN, Shanghai, China) for four h at 37 °C in the dark. Subsequently, the cells were rinsed twice with PBS containing 0.4% albumin and then washed three times with PBS. To quantify the fluorescence, 400 µL of isopropanol was added to each well, and the plates were incubated at room temperature for 20 min with continuous shaking. Subsequently, 200 µL aliquots were analyzed using a SpectraMax M2e Microplate Reader (Molecular Devices) at wavelengths of 520-570 nm, as previously described previously.

[5] = system: LDLR and ACLY protein levels; assay: Western blot of LDLR and ACLY in Huh-7 cells; assay type: cell-based, human; conditions: Huh-7, various concentrations
Method: (§2) Western blotting was performed as previously described. In brief, whole-cell lysates from cultured cells and animal tissue were prepared using 1× sample buffer, followed by boiling at 95 °C for 10 min. Subsequently, SDS-PAGE was employed to separate the samples, which were then transferred onto a nitrocellulose membrane (Pall, NY, USA). Subsequently, the membrane was incubated in a blocking buffer for one h at room temperature. Following the removal of the blocking buffer, the blots were incubated with primary antibodies (1:1,000 dilution) at 4 °C overnight. The membrane was washed thrice for 10 min each, using 1× Tris-buffered saline with 0.1% Tween-20 (TBST). Subsequently, the membranes were incubated with IRDye® 680RD Goat anti-Mouse IgG (H + L) or IRDye® 800CW Goat anti-Rabbit IgG (H + L) (1:10,000 dilution, LI-COR, Lincoln, Nebraska, USA) at room temperature for 1 h. Visualization of the blots was carried out using the Li-COR CLx infrared imaging system. GAPDH (60004-1-Ig, Proteintech, Chicago, IL, USA), ACLY (67166-1-Ig, Proteintech, Chicago, IL, USA), LDLR (10785-1-AP, Proteintech, Chicago, IL, USA), β-Actin (66009-1-Ig, Proteintech, Chicago, IL, USA), AMPK (10929-2-AP, Proteintech, Chicago, IL, USA), p-AMPK^T172 (2535, Cell Signaling Technology, Danvers, MA, USA).

[6] = system: AMPK; assay: Western blot of p-AMPK in AML12 and HepG2 cells; assay type: cell-based; conditions: 5 µM, 12 h after 50 µM palmitic acid
Method: as §2

[7] = system: primary mouse hepatocytes (PMH); assay: Nile red staining of PMH from Acly flox/flox mice infected with Cre adenovirus; assay type: cell-based; conditions: 5 µM, 12 h
Method: For the Nile Red staining procedure, primary mouse hepatocytes were treated with IOSGK at varying concentrations for a period of 12 h. Subsequently, the cells were fixed with 4% paraformaldehyde (PFA) and stained with Nile Red ([…], Invitrogen, Carlsbad, CA, USA). The intracellular accumulation of lipids was visualized and quantified using a laser scanning confocal microscope (TCS SP8; Leica, Wetzlar, Germany). Male and female Acly^flox/flox mice were used to isolate PMH and infected with adenovirus vectors carrying either Cre or GFP for 24 h.

[8] = system: liver gene expression; assay: RNA sequencing of Apoe-/- mouse liver; assay type: in vivo; conditions: heat map
Source text: Total RNA was extracted, and cDNA libraries were generated to investigate differences in gene expression. The Illumina sequencing platform was employed for single-end sequencing of the libraries. HISAT2 software (version 2.0.5) was utilized to align the reads to the mouse reference genome in Ensembl. StringTie (version 1.3.3b) was employed to compute raw counts of genes. DESeq2 (version 1.20.0) software was used to normalize the count matrix. Gene sets were established based on each KEGG pathway term and the associated genes, with GSEA conducted using the Java GSEA platform (version 3.0). This analysis utilized the 'Signal2Noise' metric for ranking and adopted a permutation type specific to 'gene sets'. Gene sets displaying FDR values below 0.25 were deemed to hold statistical significance. The expression patterns of pivotal genes within the pathways enriched by GSEA were visually represented through heatmaps, generated by employing the "pheatmap" package within the R programming environment. The relevant data can be accessed via the Gene Expression Omnibus database, using the following accession number: GSE261858.

How did the “cytotoxicity (CCK-8)” value [1] turn out when COc1ccc(-c2cc(=O)c3c(O)cc(O)c(-c4cc(-c5cc(=O)c6c(O)cc(O)cc6o5)ccc4OC)c3o2)cc1 [ISOGK, Isoginkgetin] was run?
Its value is “no significant cytotoxicity”.

And the “cytotoxicity (CCK-8)” value [2]?
Its value is “no significant cytotoxicity”.

And the “incorporation of [1,2-14C]-acetate into fatty acids and cholesterol” value [3]?
Its value is “inhibition of lipogenesis”.

And the DiI-LDL uptake [4]?
The DiI-LDL uptake was “no significant effect on LDL uptake”.

What about the “LDLR and ACLY protein levels” value [5] of the same compound?
The value was “no significant change in the LDLR and ACLY protein levels”.

And the p-AMPK protein expression [6]?
The p-AMPK protein expression was “activate AMPK”.

What about the “lipid deposition in PMH when ACLY abrogated or depleted (Nile red)” value [7] of the same compound?
Its value is “did not further diminish lipid deposition”.

What about the “expression of fatty acid and cholesterol biosynthesis genes Srebf1, Fasn, Acaca, Cyp51” value [8] of the same compound?
The value was “significantly downregulated”.
